Molecules are shown by their SMILES.

In assay [1] the test system is Plasmodium falciparum Dd2-Pol δ. The assay is described as follows: In vitro evolution of resistance, bulk culture populations. The settings on record: after selection from 90 nM to 17 μM over 6.3 mo. The format is cell-based. Here is the method:
We next sought to identify the molecular target of NPDG-F using in vitro evolution in a hypermutator line Dd2-Pol δ. This line was created to facilitate faster resistance development through the modification of the catalytic residues in DNA polymerase δ via CRISPR-Cas9 ([13]). Three populations of parasites grown in parallel were exposed to increasing concentrations of NPDG-F from the initial 90 nM to a final concentration of 17 μM over 6.3 mo. Once resistance (~4.2-fold) was identified in the 3 bulk culture populations, parasite DNA was extracted, followed by library preparation and whole-genome sequencing. […]
The in vitro evolution was conducted using Plasmodium falciparum Dd2-Pol δ. […] Every 2 or 3 days, parasitemia was determined via Giemsa smear and reset to 2% (for a 3-day split, 1.6 X108 parasites) or 3% (for a 2-day split, 2.4 X108). […] Resistance development was monitored every 3 months through SYBR green I- based EC50 dose response assay as described above. […]
Parasite genomic DNA was extracted from the parent and the resistant lines using DNeasy Blood & Tissue Kit (Qiagen). […] The pooled libraries were sequenced on Illumina NovaSeq 6000 with S4 200 chemistry to generate paired end reads with 100bp in length.
Reads were aligned to Plasmodium falciparum reference genome 3D7 (PlasmoDB v13.0) using an in-house pipeline (Cowell & Winzeler, 2019). […]

Assay [2] relates to Dd2. Put plainly: Stage specific activity assay. It counts as cell-based, Plasmodium falciparum. The settings on record: 5 × EC50. The procedure: To corroborate the findings identified through the in vitro evolution of resistance, the activity of NPDG-F was assessed in a stage-dependent manner in vitro. Because actin proteins are needed for chromosome separation, we anticipated that parasites treated with NPDG-F would arrest late in the cell cycle. The parasite strain Dd2 was first synchronized and treated in ring (~6 h post invasion, HPI), trophozoite (~18 HPI), early schizont (~30 HPI), or late schizont (~42 HPI). Cultures were then observed in each condition every 12 h until reinvasion occurred via Giemsa stain and flow cytometry. When added in early ring, NPDG-F treated cultures proceeded normally through the intraerythrocytic life cycle until late schizogony (Fig. 4A). […]
EC50s. […] Dose-response curves were then generated for the available conditions where EC50s could be determined. The fractional inhibitor concentration of both compounds was then determined as described (Fivelman et al., 2004) for the available points and graphed on a scale of 0-1 also using Graphpad Prism version 10.
Cytotoxicity was assessed using an MTS (3-(4,5-Dimethylthiazol-2-yl)-5-(3-carboxymethoxyphenyl)-2-(4-sulfophenyl)-2H-tetrazolium) absorbance assay with human HepG2 hepatoma cells. […] Following a 48-h incubation with compounds, MTS solution was added to wells and absorbance was read after 2-4 h on a Synergy Neo2 multimode reader (BioTek Winsooki, VT). […]

In the case of `C=C1C(C)C2C(Cc3ccccc3)NC(=O)C23C(=O)C=CC(O)C(O)C(C)CC(C)CC=CC3C1O` (stereo not drawn) [Methyldeoxaphomin NPDG-F], in assay [1], the “resistance in the 3 bulk culture populations” value is listed as ~ 4.2 fold. For the same compound, the “effect when added after 6 HPI” value in assay [2] (18, 30 or 42 HPI) is given as “persisted only in a minor population of schizonts”. The “effect when added in early ring” value in assay [2] (~6 HPI, synchronous Dd2) is listed as “complete life cycle inhibition”.

The values above are taken from paper PMC11874377, “Fungal-derived methyldeoxaphomins target Plasmodium falciparum segregation through the inhibition of PfActin1” (Proceedings of the National Academy of Sciences of the …, 2025).
